Measured values: patent US20050048539A1, “Methods to monitor molecule conformation and molecule/molecule proximity” (The General Hospital Corporation, priority 2003, published 2005)
Entries after “also recorded” stand apart in the source; their conditions may differ.

Tests used:
Aβ40, Aβ42 and Aβ1-x = experiment: Aβ ELISA of conditioned medium of PS70 cells treated with NSAIDs; format: cell-based, human; conditions: 24 hours; for Aβ1-x level (ELISA): high doses
Method: (§1) Cell culture and drug treatment: PS70 cells, CHO cells stably overexpressing wild-type human PS1 and APP 751 (Xia, W. et al., J. Biol. Chem. 272, 7977-7982, 1997), mouse N2a neuroblastoma, or human embryonic kidney (HEK) cells were used in this study. Cells were cultured in OPTI-MEMI with 5% fetal bovine serum at 37° C. with 5% CO2 in a tissue culture incubator. Primary cultured hippocampal-cortical neurons were prepared from embryonic day 16-18 mouse brain as described (Berezovska, O. et al., Brain Res Mol Brain Res 69: 273-280, 1999).
(§2) The NSAIDs (S)-ibuprofen (250 mM, Biomol, Plymouth Meeting, Penn.), (R)-ibuprofen (250 mM, Biomol), and flurbiprofen (250 mM, Calbiochem, San Diego, Calif.) were dissolved in 100% ethanol. […] Cells were plated onto either 12-well plates (for Aβ determinations) or onto 4-chamber slides (FLIM studies) and treated for 24 hours with NSAIDs prior to the analysis. A vehicle control chamber treated with ethanol or DMSO (0.1%) was included in each experiment. Cell toxicity was analyzed for all drugs tested by measuring adenylate kinase levels using Toxi-light reagent (Camdex, New Jersey).
(§3) ELISA, BACE-specific enzymatic activity assay and Western Blots: For Aβ ELISA we used 500 μl of conditioned medium collected 24 hours post-treatment. Formic acid-extractable Aβ in the mouse brain was measured as described (Fukumoto, H.,et al., Am. J. Pathol. 164, 719-725, 2004). The capture antibody was BNT77 and the detection antibody was horseradish peroxidase (HRP)-conjugated BA27 for Aβ40 and HRP-conjugated BC05 for Aβ42 (Asami-Odaka, A. et al., Biochemistry 34: 10272-10278, 1995). We used BAN50 as a capture antibody and HRP-conjugated BNT77 as a detection antibody for Aβ1-x (a gift from Takeda, Japan) (Asami-Odaka, A. et al., Biochemistry 34: 10272-10278, 1995). BACE activity was measured using a sensitive BACE-specific enzymatic activity assay (Fukumoto, H.,et al., Am. J. Pathol. 164, 719-725, 2004).
We treated Chinese hamster ovary (CHO) cells stably transfected with APP and PS1 (PS70 cells) with several NSAIDs at different doses for 24 hours and measured Aβ40 and Aβ42 using ELISA (FIG. 14).

BACE = target: T1, BACE (Mus musculus, UniProt P56818); experiment: BACE-specific enzymatic activity assay in brain of treated mice; format: in vivo; conditions: S-ibuprofen 375 ppm in diet vs control diet, 15 days
T1 construct: from tissue; host or cells: frozen brain of wtPS1 transgenic mice
Method: as §3
(§4) Ibuprofen treatment of wtPS1 mice: Three-month-old transgenic mice over-expressing wtPS1 were treated with S-ibuprofen (375 ppm in diet, Research Diets, New Brunswick, N.J.) or a control diet for 15 days (6 mice per group). […] At the end of the experimental period animals were sacrificed by CO2 inhalation. The brains were dissected, half of each brain was frozen on dry ice for Aβ ELISA and BACE activity analysis and the other half was fixed in 4% paraformaldehyde for immunohistochemistry. […]

PS1 [1] = target: T2, PS1 (Homo sapiens, UniProt P49768); experiment: In vivo FLIM assay of proximity between N- and C-termini of PS1 in brain sections; parameters: expressed in transfected cells; host or cells: primary hippocampal-cortical neurons from embryonic day 16-18 mouse brain; species or system mouse; conditions: mice, 375 ppm in diet, 15 days; control diet 1934±161 psec; P=0.02
Method: (§5) Ibuprofen treatment of wtPS1 mice: Three-month-old transgenic mice over-expressing wtPS1 were treated with S-ibuprofen (375 ppm in diet, Research Diets, New Brunswick, N.J.) or a control diet for 15 days (6 mice per group). […] At the end of the experimental period animals were sacrificed by CO2 inhalation. The brains were dissected, half of each brain was frozen on dry ice for Aβ ELISA and BACE activity analysis and the other half was fixed in 4% paraformaldehyde for immunohistochemistry.
Half of the brain was fixed, sectioned at 35 μm, and immunostained with antibodies against the N- and C-termini of PS1.

[2] = Chow consumption and mouse weight during ibuprofen treatment; format: in vivo; conditions: S-ibuprofen 375 ppm in diet vs control diet, 15 days
Method: as §5

PS1 [3] = target: T2, PS1; experiment: FLIM assay of PS1 N-/C-termini proximity in primary cultured neurons; format: cell-based, mouse; parameters: expressed in transfected cells; host or cells: primary hippocampal-cortical neurons from embryonic day 16-18 mouse brain
Method: as §1, with “1999). Transfection protocol: Transient transfection in cells was performed using Superfect reagents (Qiagen, Valencia, Calif.) according to manufacturer's instructions. Primary cultured neurons were transfected with wild-type PS1 plasmid using the method of calcium phosphate co-precipitation as described (Berezovska, O. et al., Brain Res Mol Brain Res 69: 273-280, 1999; Chen, C. et al., Biotechniques 6: 632-638, 1987).” for “1999).”

Aβ42 and Aβ40 = experiment: Brain Aβ ELISA in wtPS1 transgenic mice treated with S-ibuprofen; format: in vivo, mouse; conditions: 3-month-old wtPS1 transgenic mice, 375 ppm in diet, 15 days; P=0.03
Method: as §3, §4

APP and PS1 = target: T3, APP and PS1 (Homo sapiens, UniProt P49768); experiment: FLIM assay for PS1-APP proximity after NSAID treatment; format: cell-based; conditions: donor APP-CT-FITC, acceptor loop PS1-Cy3, 24 h, 375 μM S-ibuprofen, 375 μM flurbiprofen, 500 μM aspirin, DMSO vehicle 2127 ± 224
T3 construct: expressed in transfected cells
Method: as §1, §2

[4] = tested on: APP and PS1 (PS1/γ-secretase complex); experiment: FLIM assay for PS1 loop-APP C-terminus proximity in CHO cells treated with γ-secretase inhibitors; format: cell-based, Chinese hamster; conditions: WT PS1 CHO cells, donor PS1 loop-FITC, acceptor APP770-CY3, 4 h with DAPT 500 nM or WPE-III-31C 1 μM, non-FRET control 2600 ± 110, untreated 2290 ± 216
Method: Chinese hamster ovary (CHO) cells stably transfected with APP770 and either wild type PS1 (wt PS1) or Aspartate mutant PS1 (D257A PS1) were grown in OPTI-MEM with 5% fetal bovine serum and appropriate antibiotics (Puromycin or Zeocin, respectively, (Berezovska et al., 2000)).
Cells were fixed and immunostained 24 hrs posttransfection as described previously (Jack, C. et al., Brain Res Mol Brain Res 87: 166-174, 2001). We used a polyclonal C8 antibody (Selkoe, D. et al., Proc Natl Acad Sci USA 85: 7341-7345, 1988) to detect the C-terminus of APP. A monoclonal antibody to the loop region of PS1 (Chemicon, Temecula, Calif.) was used to identify the γ-secretase complex. PS1 N-terminal X81 antibody was a gift from D. Selkoe (Brigham and Women's Hospital, Boston, Mass.); PS1 C-terminal antibody was purchased from R&D Systems, Inc., Minneapolis, Minn.). For FRET/FLIM studies we chose Cy3-labeled goat anti-rabbit as the acceptor fluorophore, and FITC-labeled goat anti-mouse as the donor fluorophore.
Fluorescence Lifetime Imaging Microscopy (FLIM) relies on the observation that fluorescence lifetimes (the time of fluorophore emission after brief excitation, measured in picoseconds) are shorter in the presence of a FRET acceptor. […] We used a high-speed Hamamatsu detector and hardware/software from Becker and Hickl (Berlin, Germany) to measure fluorescence lifetimes on a pixel-by-pixel basis. […]
The following controls were used to establish and validate the FLIM assay: (1) As a negative control, FITC lifetime was measured in the absence of the acceptor. […] (2) As a positive control, FITC lifetime was measured in the presence of an acceptor. […] By contrast, the FITC fluorescence lifetime (FLIM image) within the area where the acceptor was photobleached reverts to a longer lifetime (color-coded as blue), identical to the lifetime of FITC in the absence of an acceptor (as in the negative control, FIG. 7A). […]
If there was no interaction, lifetimes on the order of ˜2600 psec were observed. If FRET was detected, a population with a statistically shorter lifetime (<˜2400 psec) was observed.

PS1 [5] = target: T2, PS1; experiment: Confocal staining with biotinylated WPE31C as histological reagent (wt PS1 vs D257A PS1 cells); format: cell-based; parameters: expressed in transfected cells; conditions: cells expressing wt PS1
Method: PS1 immunostaining co-localizes with CY3-streptavidin labeled WPE-31C-bi in the cells expressing wt PS1. […] Bar=[…].
We reasoned that an agent that binds to the active site would compete with APP, blocking the APP-PS1 interaction if the first possibility were the case. […] The cells were treated with WPE-31C to examine whether APP would still be associated with the PS1 loop region. […] It has been observed that transition state analogues like WPE31C bind specifically to the heterodimeric form of PS1, and not to the holoprotein prior to cleavage. […] We used a biotinylated form of WPE31C (Esler, W. P. et al., Proc Natl Acad Sci USA 99: 2720-2725, 2002) as a histological reagent. […] Of note, there was less WPE-31C/Cy3 signal in the proximal perinuclear compartment, compared with PS1 immunoreactivity, confirming our observation that some of this PS1 is in a different conformation and is likely not proteolytically active.

T1 sequence (P56818 46-501): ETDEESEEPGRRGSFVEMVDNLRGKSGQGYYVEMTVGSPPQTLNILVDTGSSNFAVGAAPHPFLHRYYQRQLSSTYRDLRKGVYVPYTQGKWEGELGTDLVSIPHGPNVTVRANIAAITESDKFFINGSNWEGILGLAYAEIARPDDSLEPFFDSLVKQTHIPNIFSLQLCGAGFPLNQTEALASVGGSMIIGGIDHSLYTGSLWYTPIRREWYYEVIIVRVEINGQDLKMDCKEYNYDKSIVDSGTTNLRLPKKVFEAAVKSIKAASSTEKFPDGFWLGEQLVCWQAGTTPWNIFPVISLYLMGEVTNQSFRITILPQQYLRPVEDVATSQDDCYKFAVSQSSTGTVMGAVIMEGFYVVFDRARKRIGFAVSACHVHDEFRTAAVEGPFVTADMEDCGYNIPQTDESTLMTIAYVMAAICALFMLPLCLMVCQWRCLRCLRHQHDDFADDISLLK

SMILES	FITC lifetime (PS1 N- to C-termini distance) (PS1 [3])	Aβ42 level (ELISA) (Aβ40, Aβ42 and Aβ1-x)	Aβ40 level (ELISA) (Aβ40, Aβ42 and Aβ1-x)	Aβ1-x level (ELISA) (Aβ40, Aβ42 and Aβ1-x)	other results
CC(C)Cc1ccc([C@@H](C)C(=O)O)cc1 [R-ibuprofen, (R)-ibuprofen]	–	marked reduction; also recorded: dose-dependent reduction	–	–	–
COC(=O)[C@@H](NC(=O)[C@H](CC(C)C)NC(=O)N(Cc1ccccc1)C[C@@H](O)[C@H](Cc1ccccc1)NC(=O)OC(C)(C)C)C(C)C [WPE-III-31C]	–	–	–	–	FITC Lifetime (psec) mean ± SD ([4]; listed as WPE31C): 1972 ± 264 (n = 30) psec; FITC Lifetime (psec) mean ± SD ([4]; listed as WPE-31C): tight association between APP and PS1; CY3-streptavidin staining / co-localization with PS1 immunostaining (PS1 [5]): strongly stained
CC(=O)Oc1ccccc1C(=O)O [aspirin]	–	No or small change	No or small change	–	–
CC(C(=O)O)c1ccc(-c2ccccc2)c(F)c1 (centres unmarked) [flurbiprofen]	–	marked reduction; also recorded: dose-dependent reduction	reduced	did not observe a change	–

More lines, main results first:

FITC lifetime (PS1 N- to C-termini distance) (PS1 [3])	SMILES	Aβ42 level (ELISA) (Aβ40, Aβ42 and Aβ1-x)	Aβ40 level (ELISA) (Aβ40, Aβ42 and Aβ1-x)	Aβ1-x level (ELISA) (Aβ40, Aβ42 and Aβ1-x)	other results
significantly increased	CC(C)Cc1ccc([C@H](C)C(=O)O)cc1 [S-ibuprofen, (S)-ibuprofen]	marked reduction; also recorded: dose-dependent reduction	reduced	did not observe a change	BACE activity in brain (BACE): No differences; FITC lifetime, brain sections stained for PS1 N- and C-termini (PS1 [1]): 2205±104 psec; amount of chow consumed, mouse weight [2]: no differences; reduction of Aβ42/Aβ40 ratio in the brain vs control diet (Aβ42 and Aβ40): 12%; FITC lifetime APP-CT (mean ± SD) (APP and PS1): 2307 ± 107 psec; FITC lifetime APP-CT (mean ± SD) (APP and PS1; listed as ibuprofen): increased FITC lifetime
significantly increased	COc1ccc2c(c1)c(CC(=O)O)c(C)n2C(=O)c1ccc(Cl)cc1 [indomethacin]	marked reduction; also recorded: dose-dependent reduction	–	did not observe a change	–
not	COc1ccc2cc([C@H](C)C(=O)O)ccc2c1 [naproxen]	No or small change	No or small change	did not observe a change	–
